Test results reported in ChEMBL document CHEMBL1201862, “PubChem BioAssay data set” (2004).
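Each compound was tested at five concentrations against cells in 96-well plates for 48 hours. GI50 marks 50% less growth.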 Active and inactive are the calls of the source. Rule as the data show it: active = GI50 up to about 1.1 µM and inactive = higher.

Key:
Experiment in all cases: inhibition of tumour cell growth, NCI panel, 48 h
KM12 = tested on: KM12
UACC-62 = tested on: UACC-62
SK-OV-3 = tested on: SK-OV-3
RPMI-8226 = tested on: RPMI-8226
OVCAR-3 = tested on: OVCAR-3
SK-MEL-5 = tested on: SK-MEL-5
A549 = tested on: A549
Malme-3M = tested on: Malme-3M
M14 = tested on: M14
UACC-257 = tested on: UACC-257
HL-60 = tested on: HL-60
SW-620 = tested on: SW-620
SF-539 = tested on: SF-539
OVCAR-8 = tested on: OVCAR-8
HOP-62 = tested on: HOP-62
OVCAR-5 = tested on: OVCAR-5
SK-MEL-2 = tested on: SK-MEL-2

Measured: GI50

C#CCNC(=O)NCCCC(NC(C)=O)C(=O)NCc1ccccc1 (stereo unspecified)
inactive: KM12 > 100 µM | UACC-62 > 100 µM | SK-OV-3 > 100 µM | RPMI-8226 > 100 µM | OVCAR-3 > 100 µM | SK-MEL-5 > 100 µM | A549 > 100 µM | Malme-3M > 100 µM | M14 > 100 µM | UACC-257 > 100 µM | HL-60 > 100 µM | SW-620 > 100 µM | SF-539 > 100 µM | OVCAR-8 > 100 µM | HOP-62 > 100 µM | OVCAR-5 > 100 µM

O=C(CCC(=O)Nc1ccc(Cl)cc1)CC(=O)c1ccc2ccccc2c1
inactive: KM12 > 100 µM | UACC-62 32.7 µM | SK-OV-3 > 100 µM | RPMI-8226 > 100 µM | OVCAR-3 > 100 µM | SK-MEL-5 > 100 µM | A549 > 100 µM | Malme-3M > 100 µM | M14 > 100 µM | UACC-257 > 100 µM | HL-60 > 100 µM | SW-620 > 100 µM | SF-539 > 100 µM | OVCAR-8 > 100 µM | HOP-62 > 100 µM | SK-MEL-2 > 100 µM | OVCAR-5 > 100 µM

C1OC1CN1CCN(CC2CO2)CC1 (stereo unspecified)
inactive: KM12 > 100 µM | UACC-62 8.87 µM | SK-OV-3 > 96.8 µM | RPMI-8226 > 66.8 µM | OVCAR-3 > 100 µM | SK-MEL-5 > 100 µM | A549 17.5 µM | Malme-3M > 100 µM | M14 54.6 µM | UACC-257 > 100 µM | HL-60 4.85 µM | SW-620 > 100 µM | SF-539 37.4 µM | OVCAR-8 > 75.7 µM | HOP-62 24.2 µM | SK-MEL-2 > 100 µM | OVCAR-5 > 100 µM

CC(C)(C)C1=CC(=C2C(=O)C(=O)c3ccccc3C2=O)C=C(C(C)(C)C)C1=O
inactive: KM12 > 100 µM | UACC-62 32.7 µM | SK-OV-3 > 100 µM | RPMI-8226 23.8 µM | OVCAR-3 33 µM | SK-MEL-5 48.5 µM | A549 > 100 µM | Malme-3M 26.5 µM | M14 37.5 µM | UACC-257 29.4 µM | HL-60 29.4 µM | SW-620 36 µM | SF-539 82.2 µM | OVCAR-8 51.3 µM | HOP-62 > 100 µM | SK-MEL-2 > 100 µM | OVCAR-5 > 100 µM

CC(C)C(=O)N[C@@H](C)C(=O)N(Cc1ccc2ccccc2c1)N=O
inactive: KM12 > 10 µM | UACC-62 48 µM | SK-OV-3 > 100 µM | RPMI-8226 43.6 µM | OVCAR-3 62.7 µM | SK-MEL-5 > 100 µM | A549 82.4 µM | Malme-3M > 100 µM | M14 84.1 µM | UACC-257 > 100 µM | SW-620 55.5 µM | SF-539 > 100 µM | OVCAR-8 > 100 µM | HOP-62 > 100 µM | SK-MEL-2 98.9 µM | OVCAR-5 48.8 µM

COC(=O)C(Cc1nc2ccc(Cl)cc2nc1O)/C(=N\N)C(=O)Nc1cc(C)c(Cl)cc1S(=O)(=O)O (stereo unspecified)
inactive: KM12 > 100 µM | UACC-62 > 100 µM | SK-OV-3 > 100 µM | RPMI-8226 88.3 µM | OVCAR-3 > 100 µM | SK-MEL-5 > 100 µM | A549 > 100 µM | Malme-3M > 100 µM | M14 > 100 µM | UACC-257 > 100 µM | SW-620 > 10 µM | SF-539 > 100 µM | OVCAR-8 > 100 µM | HOP-62 > 100 µM | SK-MEL-2 > 100 µM | OVCAR-5 75.7 µM

C#Cc1ccccc1N1C(=O)C=CC1=O
inactive: UACC-62 > 100 µM | SK-OV-3 > 100 µM | RPMI-8226 > 100 µM | OVCAR-3 > 100 µM | SK-MEL-5 > 100 µM | A549 > 100 µM | Malme-3M > 100 µM | M14 > 100 µM | UACC-257 > 100 µM | HL-60 > 100 µM | SW-620 > 100 µM | OVCAR-8 > 100 µM | HOP-62 > 100 µM | SK-MEL-2 > 100 µM | OVCAR-5 > 100 µM

O=C1C=C2CCCC2C(C(=O)O)(C(=O)O)C1 (stereo unspecified)
inactive: KM12 > 100 µM | UACC-62 > 100 µM | SK-OV-3 > 100 µM | RPMI-8226 > 100 µM | OVCAR-3 > 100 µM | SK-MEL-5 > 100 µM | A549 > 100 µM | Malme-3M > 100 µM | M14 > 100 µM | UACC-257 > 100 µM | HL-60 > 100 µM | SW-620 > 100 µM | SF-539 > 100 µM | OVCAR-8 > 100 µM | HOP-62 > 100 µM | SK-MEL-2 > 100 µM

Cc1nc2cc(N)c(F)cc2[nH]1
inactive: KM12 > 100 µM | UACC-62 > 100 µM | SK-OV-3 > 100 µM | SK-MEL-5 > 100 µM | A549 > 100 µM | Malme-3M > 100 µM | UACC-257 > 100 µM | HL-60 > 100 µM | SW-620 > 100 µM | SF-539 > 100 µM | OVCAR-8 > 100 µM | HOP-62 > 100 µM | SK-MEL-2 > 100 µM | OVCAR-5 > 100 µM

Cc1ccccc1Cn1nc2ccccc2cc1=O
inactive: KM12 > 100 µM | UACC-62 > 100 µM | SK-OV-3 > 100 µM | RPMI-8226 > 100 µM | OVCAR-3 > 100 µM | SK-MEL-5 > 100 µM | A549 > 100 µM | Malme-3M > 100 µM | M14 > 100 µM | UACC-257 > 100 µM | SW-620 > 100 µM | SF-539 > 100 µM | OVCAR-8 > 100 µM | HOP-62 > 100 µM | SK-MEL-2 > 100 µM | OVCAR-5 > 100 µM

CC(C)=CC(=O)CC(=O)C(=O)NCCNC(=O)C(=O)CC(=O)C=C(C)C
inactive: KM12 > 50 µM | UACC-62 > 50 µM | SK-OV-3 > 50 µM | RPMI-8226 > 50 µM | OVCAR-3 > 50 µM | A549 > 50 µM | Malme-3M > 50 µM | M14 > 50 µM | UACC-257 > 50 µM | SW-620 > 50 µM | SF-539 > 50 µM | OVCAR-8 > 50 µM | HOP-62 > 50 µM | SK-MEL-2 > 50 µM | OVCAR-5 > 50 µM

CCCC(=O)C(CC)/C(CCC(=O)N(Cc1ccccc1)Cc1ccccc1)=N/NC(=O)C[N+](C)(C)C (stereo unspecified)
inactive: KM12 > 100 µM | SK-OV-3 > 100 µM | OVCAR-3 > 100 µM | SK-MEL-5 > 100 µM | A549 > 100 µM | Malme-3M > 100 µM | M14 > 100 µM | UACC-257 > 100 µM | HL-60 > 100 µM | SW-620 > 100 µM | SF-539 > 100 µM | OVCAR-8 > 100 µM | HOP-62 > 100 µM | SK-MEL-2 > 100 µM | OVCAR-5 > 100 µM

C/C(=C1/CCCC2(N=NCC2c2ccccc2)C1=O)c1ccccc1 (stereo unspecified)
inactive: KM12 15.9 µM | UACC-62 16.3 µM | SK-OV-3 30.7 µM | RPMI-8226 20 µM | OVCAR-3 17.6 µM | SK-MEL-5 12.7 µM | A549 20.4 µM | Malme-3M 21 µM | M14 13.8 µM | UACC-257 22.1 µM | HL-60 8.95 µM | SW-620 69.8 µM | SF-539 41.2 µM | OVCAR-8 21.3 µM | SK-MEL-2 19.1 µM | OVCAR-5 36 µM
